According to patent publication US10206399B2, “Herbicidal composition comprising uracil compound as active ingredient” (Dongbu Farm Hannong Co., Ltd., priority 2012, dated 2019):
Read-outs that look alike come from different tables or passages of the source.

What was measured:
[1] = system: Monochoria vaginalis; test: Paddy field farming herbicidal composition test, plant mortality; type: in vivo
Text: (§1) X is % damage by uracil compound (a) of formula 1 at the rate of application of p kg/ha; Y is % damage by conventional herbicidal compound (b) at the rate of application of q kg/ha; and E is the expected damage caused by compounds (a) and (b) at a rate of application of p and q kg/ha.
(§2) The expected activity for a given combination of two herbicides can be calculated using equation 1 above.

[2] = system: Echinochloa crus; test: as above; type: in vivo
Text: as §1, §2

[3] = system: corn
[4] = system: Digitaria sanguinalis; test: Dry field farming herbicidal composition test, plant mortality; type: in vivo; conditions: Digitaria sanguinalis, read-out: Digitaria sanguinalis mortality, measured value
Text: as §1, §2

[5] = system: Abutilon theophrasti; test: as above; type: in vivo; conditions: Abutilon theophrasti, read-out: Abutilon theophrasti mortality, measured value
Text: as §1, §2

[6] = system: Aeschynomene indica; test: as above; type: in vivo; conditions: Aeschynomene indica, read-out: Aeschynomene indica mortality, measured value
Text: as §1, §2

[7] = system: Echinochloa crus; test: as above; type: in vivo; conditions: Echinochloa, read-out: Echinochloa crus mortality, measured value
Text: as §1, §2

[8] = system: Aeschynomene indica; test: whole plant or invertebrate
Text: as §1, §2

[9] = system: Abutilon theophrasti; conditions: 20 g/ha; Abutilon theophrasti
Text: as §1, §2

[10] = system: Abutilon theophrasti; test: whole plant or invertebrate
Text: as §1, §2

[11] = system: Echinochloa crus; conditions: Echinochloa crus
Text: as §1, §2

[12] = system: Digitaria sanguinalis; conditions: Digitaria sanguinalis
Text: as §1, §2

[13] = system: Xanthium spinosum; test: whole plant or invertebrate
Text: as §1, §2

[14] = Pontederia vaginalis, read-out: Monochoria vaginalis mortality (measured value)
[15] = Echinochloa, read-out: Echinochloa crus mortality, measured value
[16] = read-out: plant mortality, measured value, 20 g/ha
[17] = read-out: plant mortality, measured value, 40 g/ha
[18] = read-out: plant mortality, measured value, 80 g/ha

`CCN(CC)C(=O)n1cnc(S(=O)(=O)c2c(C)cc(C)cc2C)n1` [Cafenstrole] was tested, and the pest or weed control at 50 g/ha [1, 14] was 30% and the pest or weed control at 50 g/ha [2, 15] was 20%.

Work on `CC1=C(c2ccccc2)C(=O)N(C(C)(C)c2cc(Cl)cc(Cl)c2)CO1` [Oxaziclomefone] yielded a pest or weed control at 12.5 g/ha ([1]; Pontederia vaginalis, 12.5 g/ha, read-out: Monochoria vaginalis mortality (measured value)) of 0% and a pest or weed control at 12.5 g/ha ([2]; Echinochloa, 12.5 g/ha, read-out: Echinochloa crus mortality (measured value)) of 30%.

In the case of `CCSC(=O)N1CCCCCC1` [molinate], the pest or weed control at 500 g/ha [1, 14] is reported as 0% and the pest or weed control at 500 g/ha [2, 15] is reported as 50%.

With `COCc1cccc(C(O)c2nc(OC)cc(OC)n2)c1NS(=O)(=O)C(F)F` (stereo not shown) [Pyrimisulfan] the “Monochoria vaginalis mortality (measured value)” value (“Monochoria vaginalis mortality” for short) ([1]; 16.5 g/ha) was 50 and the “Echinochloa crus mortality, measured value” (“Echinochloa crus mortality” for short) ([2]; 16.5 g/ha) was 40.

`COc1cc(OC)nc(NC(=O)NS(=O)(=O)c2c(C(=O)O)c(Cl)nn2C)n1` [Halosulfuron] showed a pest or weed control at 11 g/ha [1, 14] of 30% and a pest or weed control at 11 g/ha [2, 15] of 30%.

With `COc1cc(OC)nc(Sc2cccc3c2C(=O)OC3C)n1` (stereo not shown) [Pyritlalid] the “Monochoria vaginalis mortality” value ([1]; 37.5 g/ha) was 0 and the “Echinochloa crus mortality” value ([2]; 37.5 g/ha) was 30.

In the case of `CON=C(C)c1cccc(Oc2nc(OC)cc(OC)n2)c1C(=O)O` [Pyriminobac], the “Monochoria vaginalis mortality” value ([1]; 11 g/ha) is reported as 0 and the “Echinochloa crus mortality” value ([2]; 11 g/ha) is reported as 50.

For `Cc1nn(-c2cc(NS(C)(=O)=O)c(Cl)cc2Cl)c(=O)n1C(F)F` [Sulfentrazone], the “Corn mortality, measured value” ([3]; 75 g/ha) was 0, the “Corn mortality, measured value” ([3]; 150 g/ha) was 0 and the “Corn mortality, measured value” ([3]; 300 g/ha) was 1. For the same molecule, the pest or weed control at 75 g/ha [4] was 0%, the pest or weed control at 150 g/ha [4] was 10% and the pest or weed control at 300 g/ha [4] was 28%. It also gave a pest or weed control at 75 g/ha [5] of 12%, a pest or weed control at 150 g/ha [5] of 25% and a pest or weed control at 300 g/ha [5] of 56%. For the same molecule, the pest or weed control at 75 g/ha [6] was 7%, the pest or weed control at 150 g/ha [6] was 25% and the pest or weed control at 300 g/ha [6] was 53%. For the same molecule, the pest or weed control at 75 g/ha [7] was 0%, the pest or weed control at 150 g/ha [7] was 5% and the pest or weed control at 300 g/ha [7] was 20%.

`C=CCOC(=O)C(C)(C)OC(=O)c1cc(-n2c(=O)cc(C(F)(F)F)n(C)c2=O)ccc1Cl` [Butafenacil] gave a pest or weed control at 8 g/ha ([8]; read-out: plant mortality, measured value, 8 g/ha) of 45%, a pest or weed control at 20 g/ha [8, 16] of 51% and a pest or weed control at 40 g/ha [8, 17] of 99%. The pest or weed control at 80 g/ha [8, 18] was 100%, the “plant mortality, measured value” [9] was 55 and the pest or weed control at 20 g/ha [10, 16] was 55%. The pest or weed control at 40 g/ha [10, 17] was 94%, the pest or weed control at 80 g/ha [10, 18] was 100% and the “plant mortality, measured value” ([11]; 4 g/ha) was 0. The “plant mortality, measured value” ([11]; 8 g/ha) was 0, the “plant mortality, measured value” ([11]; 20 g/ha) was 12 and the “plant mortality, measured value” ([11]; 40 g/ha) was 30. For the same molecule, the “plant mortality, measured value” ([11]; 80 g/ha) was 53, the “plant mortality, measured value” ([12]; 4 g/ha) was 0 and the “plant mortality, measured value” ([12]; 20 g/ha) was 12. The “plant mortality, measured value” ([12]; 40 g/ha) was 40, the “plant mortality, measured value” ([12]; 80 g/ha) was 70 and the pest or weed control at 4 g/ha ([13]; read-out: plant mortality, measured value, 4 g/ha) was 15%. It also gave a pest or weed control at 16 g/ha ([13]; read-out: plant mortality, measured value, 16 g/ha) of 54%, a pest or weed control at 20 g/ha [13, 16] of 42% and a pest or weed control at 40 g/ha [13, 17] of 90%. For the same molecule, the pest or weed control at 80 g/ha [13, 18] was 100%.

In the case of `CC(C)N(C(=O)COc1nnc(C(F)(F)F)s1)c1ccc(F)cc1` [Flufenacet], the “Corn mortality, measured value” ([3]; 87.5 g/ha) is reported as 0, the “Corn mortality, measured value” ([3]; 175 g/ha) is reported as 0 and the “Corn mortality, measured value” ([3]; 350 g/ha) is reported as 1. The pest or weed control at 87.5 g/ha [4] was 7%, the pest or weed control at 175 g/ha [4] was 22% and the pest or weed control at 350 g/ha [4] was 53%. It also gave a pest or weed control at 87.5 g/ha [5] of 9%, a pest or weed control at 175 g/ha [5] of 23% and a pest or weed control at 350 g/ha [5] of 46%. It also gave a pest or weed control at 87.5 g/ha [6] of 6%, a pest or weed control at 175 g/ha [6] of 18% and a pest or weed control at 350 g/ha [6] of 46%. The pest or weed control at 87.5 g/ha [7] was 7%, the pest or weed control at 175 g/ha [7] was 24% and the pest or weed control at 350 g/ha [7] was 50%.

`COc1cc(OC)nc(NC(=O)NS(=O)(=O)c2ncccc2C(=O)N(C)C)n1` [Nicosulfuron] was tested, and the “Corn mortality, measured value” ([3]; 5 g/ha) was 0, the “Corn mortality, measured value” ([3]; 10 g/ha) was 0 and the “Corn mortality, measured value” ([3]; 20 g/ha) was 0. It also gave a pest or weed control at 5 g/ha [4] of 7%, a pest or weed control at 10 g/ha [4] of 24% and a pest or weed control at 20 g/ha [4] of 50%. It also gave a pest or weed control at 5 g/ha [5] of 8%, a pest or weed control at 10 g/ha [5] of 26% and a pest or weed control at 20 g/ha [5] of 62%. For the same molecule, the pest or weed control at 5 g/ha [6] was 11%, the pest or weed control at 10 g/ha [6] was 30% and the pest or weed control at 20 g/ha [6] was 65%. The pest or weed control at 5 g/ha [7] was 10%, the pest or weed control at 10 g/ha [7] was 24% and the pest or weed control at 20 g/ha [7] was 50%.

`COc1nc(C)nc(NC(=O)NS(=O)(=O)c2cc(I)ccc2C(=O)O)n1` [Iodosulfuron] was tested, and the “Corn mortality, measured value” ([3]; 1.25 g/ha) was 0, the “Corn mortality, measured value” ([3]; 5 g/ha) was 1 and the pest or weed control at 1.25 g/ha [4] was 12%. The pest or weed control at 5 g/ha [4] was 56%, the pest or weed control at 1.25 g/ha [5] was 13% and the pest or weed control at 5 g/ha [5] was 61%. It also gave a pest or weed control at 1.25 g/ha [6] of 12%, a pest or weed control at 5 g/ha [6] of 47% and a pest or weed control at 1.25 g/ha [7] of 7%. It also gave a pest or weed control at 5 g/ha [7] of 58%.
